# In patent US11987808B2, “Method of human periferic sensory neurons differenciation from human stem cells and uses thereof” (L'OREAL, priority 2017, dated 2024):
# Entries after “also recorded” stand apart in the source; their conditions may differ.
# Experiments:
# TRPV1 = settings: Zygmunt et al. 1999; cited from earlier work
# [1] = test system: hiPS cells derived sensory neurons (TRPV1 activity / substance P release); test: Substance P release (ELISA) from hiPSC-derived sensory neurons after treatment with TRPV1 agonists and antagonists; type: cell-based, human
# Protocol: Substance P release measured in the supernatant of sensory neurons culture after incubating 1 h at 37° C. in the presence of ligands. CAP: capsaicin; CPZ: capsazepine; RR: ruthenium red; AEA: anandamide (10 μM); KCl: high potassium solution (70 mM).
# Substance P (SP) levels were determined using a commercially available ELISA kit (Cayman), following the manufacturer's instructions. Sensory neurons were cultured in a culture vessel in 24-well culture vessels at high confluence. After 24 h, cells were rinsed with fluorimetry buffer and incubated with different concentrations of agonists of TRPV1 for 45 minutes in the same buffer. When an antagonist was used, it was applied 15 minutes before, then the solution was changed to agonist plus antagonist. Subsequently, the supernatants were collected and immediately used with the ELISA kit. All experiments were performed in triplicate and absorbance levels were measured in a microculture vessel reader.
# PSNs respond to irritants, such as capsaicin, via release of neuropeptides at the epidermal end and glutamate and neuropeptides in the dorsal horn of the medulla (Basbaum et al., Cellular and molecular mechanisms of pain. Cell. 2009; 139:267-284). To verify if the sensory neurons were functional with respect to neuropeptide release, after D33 they were plated onto 24-well plates and treated 10 days with HEKn conditioned medium.
# [2] = test system: cultured human epidermal keratinocytes; settings: Inoue et al. 2002; cited from earlier work
# human skin fibroblasts = settings: Kim et al. 2006; cited from earlier work
# [3] = test system: TRPV1 in hiPS cells derived sensory neurons; test: Calcium release assay (Fura-2 imaging) in hiPS cells derived sensory neurons; type: cell-based, human; settings: Fura-2 340/380 nm, capsaicin 100 nM in FIG. 5
# Protocol: Phase contrast image for cell localization (a) fluorescence image of basal calcium levels (b). Calcium responses in sensory neurons after 100 nM capsaicin (c) and 70 mM KCL treatment (d). Calcium imaging of sensory neurons with conversion of Fura-2 excitation ratio (340/380 nm) to pseudo color, according to the scale on the left of each image. Arrows indicate active cells.
# Neurons were cultured in a culture vessel onto PLO and Laminin-treated coverslips (where they were treated with HEKn conditioned medium for 10 days. On the day of the experiment, the medium was removed and cells were incubated with fresh medium (without factors) containing 5 μM Fura-2 AM (Molecular Probes) and 0.04% pluronic acid for one hour at 37° C. Then this solution was replaced with fluorimetry buffer, composed of (in mM): 145 NaCl, 5 KCl, 1.2 NaHPO4, 1.5 CaCl2, 10 D-glucose, 5 HEPES pH 7.4. If an antagonist was used, it was added to this solution at this time. After 30 minutes at 37° C., the coverslips were taken to an inverted microscope (Nikon) equipped with a CCD Camera (Orca, Hamamatsu Photonics) and Lambda DG-4 light source (Sutter Instrument). The images were acquired every 500 milliseconds via MetaFluor software (Molecular Probes) and the levels of fluorescence were represented in pseudo-color. […]
structure (smiles),measurement,setting,value
CCCCC/C=C\C/C=C\C/C=C\C/C=C\CCCC(=O)NCCO [anandamide],EC50 at TRPV1 compared with CB1,TRPV1,an order of magnitude higher
same,Substance P release,[1]; anandamide 10 μM,evoked the highest substance P release; also recorded: caused a release of substance P
same,"Substance P release, increase compared to control","[1]; anandamide 10 μM, supernatant of sensory neurons culture after 1 h at 37° C.",887%
Oc1cc2c(cc1O)CN(C(=S)NCCc1ccc(Cl)cc1)CCC2 [capsazepine],Inhibition of capsaicin-/acidification-induced calcium increases,[2],inhibited
same,Block of capsaicin-induced substance P release,"[1]; co-treatment with capsazepine 1 μM, capsaicin 300 nM",efficiently blocked
same,Antagonism of capsaicin-induced changes,human skin fibroblasts,antagonized
COc1cc(CNC(=O)CCCC/C=C/C(C)C)ccc1O [capsaicin],Intracellular calcium concentration,[2],produced elevations in the intracellular calcium concentration
same,Substance P release relative to basal level,"[1]; capsaicin 300 nM, neurons treated 10 days with HEKn conditioned medium",triple that amount
same,Substance P release,[1]; capsaicin 3 μM,did not show increased release
same,Membrane current and intracellular calcium level,human skin fibroblasts,induced significant changes in the membrane current and the intracellular calcium level
same,Calcium increases mediated by TRPV1 activation (calcium signals),[3],modest
same,Calcium increases mediated by TRPV1 activation (calcium signals),[3]; listed as Capsaicin,activity could be detected
N.N.N.N.N.N.N.N.N.N.N.N.N.N.[Cl-].[Cl-].[Cl-].[Cl-].[Cl-].[Cl-].[O-2].[O-2].[Ru+3].[Ru+3].[Ru+4] [ruthenium red],Substance P release relative to basal levels,[1]; pre-incubation with ruthenium red 10 μM followed by capsaicin 3 μM,seemed to decrease substance P release below basal levels
[Cl-].[K+] [high potassium solution],Substance P release,[1]; high potassium solution 70 mM,substance P release equivalent to capsaicin 300 r1M
